In PubChem BioAssay (NCI):
Values joined by “and” are separate entries in the source; they are usually repeats but may differ in a detail not shown here. Equal entries are not always repeated.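 Protocol summary: plate cells (96-well), add compound at 5 concentrations, incubate 48 h, interpolate endpoints linearly. Here, GI50 denotes the concentration required for 50% inhibition of growth. Definition used: TGI = concentration required for complete inhibition of growth.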

Experiments:
Assay in all cases: DTP human tumour cell line panel, 48 h
RPMI-8226 leukemia = tested on: RPMI-8226 leukemia
NCI-H226 lung = tested on: NCI-H226 lung
OVCAR-3 ovarian = tested on: OVCAR-3 ovarian
NCI-H23 lung = tested on: NCI-H23 lung
HOP-92 NSCLC = tested on: HOP-92 NSCLC
NCI-H460 lung = tested on: NCI-H460 lung
RXF 393 renal = tested on: RXF 393 renal
IGROV1 ovarian = tested on: IGROV1 ovarian
COLO 205 colon = tested on: COLO 205 colon
MDA-MB-435 = tested on: MDA-MB-435

Row | SMILES | TGI (RPMI-8226 leukemia) [µM] | TGI (NCI-H226 lung) | TGI (OVCAR-3 ovarian) [µM] | TGI (NCI-H23 lung) [µM] | TGI (HOP-92 NSCLC) | TGI (NCI-H460 lung) [µM] | TGI (RXF 393 renal) | TGI (IGROV1 ovarian) | TGI (COLO 205 colon) [µM] | TGI (MDA-MB-435) [µM] | GI50 (MDA-MB-435) [µM] | GI50 (NCI-H226 lung) [µM] | GI50 (OVCAR-3 ovarian) [µM] | GI50 (NCI-H23 lung) [µM] | GI50 (HOP-92 NSCLC) [µM] | GI50 (NCI-H460 lung) [µM] | GI50 (RXF 393 renal) [µM] | GI50 (IGROV1 ovarian) [µM] | GI50 (RPMI-8226 leukemia) [µM] | GI50 (COLO 205 colon) [µM]
1 | COc1cc(C=O)c(-c2cc3c(cc2C2(C)OCCS2)OCO3)c(OC)c1OC (stereo not given) | > 160 | 29.5 µM | 13.6 | 92.9 | 90.3 µM | > 75.6 | 46.9 µM | > 169 µM | 16.1 |  |  |  |  |  |  |  |  |  |  | 
2 | CN(C(=O)C12C3(C(=O)C(C)(C)C)C4C5(C#N)C3C1(C(=O)C(C)(C)C)C5C42C(=O)C(C)(C)C)C(C)(C)C (stereo not given) |  | > 50 µM | > 50 | > 50 | > 50 µM | > 50 |  | > 50 µM | > 50 |  |  |  |  |  |  |  |  |  |  | 
3 | O=C(O)C(C(=O)C(=O)C(C(=O)O)c1ccc(Cl)cc1)c1ccc(Cl)cc1 (stereo not given) | 5.91 | 16.4 µM | 10.2 | 5.6 | 8.89 µM | 13.7 | 8.37 µM | 9.03 µM | 18.8 |  |  |  |  |  |  |  |  |  |  | 
4 | CCCCN=C(NC#N)N(Cc1ccccc1)Cc1ccccc1 | 40.8 | > 100 µM | 64.8 | 77.4 | 45.5 µM | > 100 | 65.5 µM | 74.4 µM | 32.5 |  |  |  |  |  |  |  |  |  |  | 
5 | O=c1cc(-c2ccccc2)nc(/C=C(\O)c2ccncc2)n1-c1ccccc1 |  | > 100 µM | > 100 | > 100 | > 100 µM | > 100 | > 100 µM | > 100 µM | > 100 |  |  |  |  |  |  |  |  |  |  | 
6 | COc1ccc2nc(NCN3C(=O)c4ccccc4C3=O)sc2c1 | > 100 |  | > 100 | > 100 | > 100 µM | > 100 | > 100 µM | > 100 µM | > 100 | > 100 |  |  |  |  |  |  |  |  |  | 
7 | CCCCOC(=O)c1ccc(NC(=O)CCl)cc1 |  | 23.1 µM | 3.3 | 7.47 | 3.65 µM | 10.7 | 3.19 µM | 4.34 µM |  | 14.3 | 3.5 | 4.82 | 1.7 | 2.4 | 1.93 | 3.09 | 1.55 | 1.6 |  | 
8 | COc1ccc(SC2c3ccc(C)cc3Oc3nc(N)c(C#N)c(N)c32)cc1 (stereo not given) | 6.56 | 3.22 µM | 3.13 | 3.31 | 3.55 µM | 4.36 | 3.01 µM |  |  | 3.16 | 1.69 | 1.75 | 1.75 | 1.67 | 1.84 | 2.13 | 1.65 |  | 2.47 | 
9 | CCCOC(=O)N[C@H]1CCc2cc(OC)c(OC)c(OC)c2-c2ccc(SC)c(=O)cc21 | 8.22 | 10.6 µM | < 0.0238 | > 100 | 16.1 µM | 11.7 |  | > 100 µM | 0.0108 |  |  | < 0.01 | < 0.01 | < 0.01 | < 0.0182 | < 0.01 |  | < 0.01 | < 0.01 | < 0.01
10 | NC(=O)C(=Cc1ccc(CP(=O)(O)O)cc1)C(N)=O | > 100 |  | > 100 | > 100 | > 100 µM | > 100 | > 100 µM | > 100 µM | > 100 |  |  |  |  |  |  |  |  |  |  | 
11 | CN(C)C(=S)/N=c1\ss/c(=N\C(=S)N(C)C)n1-c1ccc(Cl)cc1 | > 100 | > 100 µM | > 100 | > 100 | > 100 µM | > 100 | > 100 µM | > 100 µM | > 100 |  |  |  |  |  |  |  |  |  |  | 
12 | CCn1c2ccc(C(=O)CCCN(C)C)cc2c2cc(C(=O)CCCN(C)C)ccc21 |  | 8.61 µM | 6.72 | 4.29 | 9.24 µM | 2.61 | 4.3 µM | 4.23 µM | 6.92 | 2.82 |  |  |  |  |  |  |  |  |  | 
13 | NC(CC(=O)Nc1ccc(Cl)cc1)=Nc1ccccc1 |  | > 100 µM | > 100 | > 100 |  | > 100 | > 100 µM | > 100 µM | > 100 |  |  |  |  |  |  |  |  |  |  | 
14 | COC(=O)c1ccc(NC(=O)c2cc(OC)c(OC)c(OC)c2)cc1 |  | > 85.4 µM | 7.77 |  | > 100 µM | > 100 | 77.2 µM | > 100 µM |  |  |  |  |  |  |  |  |  |  |  | 
15 | CC(C)N1CCC2(CC1)NNc1ncccc1-n1cccc12 | > 100 | > 100 µM | > 100 | > 100 |  | > 100 |  |  | > 100 |  |  |  |  |  |  |  |  |  |  | 
16 | Cc1ccc(C(=O)N2CCN(C(=O)c3ccc(C)cc3)c3ccccc32)cc1 | > 58.2 | > 79.8 µM | 10.6 | > 100 | > 61.2 µM | > 100 | 8.43 µM | > 100 µM | 32.2 |  |  |  |  |  |  |  |  |  |  | 
17 | CC(=O)OC(C)(C)/C=C/C(=O)[C@](C)(O)[C@H]1[C@H](O)C[C@@]2(C)[C@@H]3CC=C4[C@@H](C[C@H](O)C(=O)C4(C)C)[C@]3(CO)C(=O)C[C@]12C | 2.28 | 0.776 µM and 0.293 µM | 0.762 | 14.7 | 0.435 µM and 0.454 µM | 17.9 | 0.405 µM and 0.458 µM | 0.907 µM and 2.89 µM |  |  |  | 0.29 | 0.273 | 0.621 | 0.282 | 0.407 |  | 0.463 | 0.356 | 0.159
18 | CCOC(=O)c1cc2c(cn1)[nH]c1cccc(N)c12 |  |  | > 100 | > 100 | > 100 µM | > 100 | > 100 µM | > 100 µM | > 100 |  |  |  |  |  |  |  |  |  |  | 
19 | Nc1nc(NC2C=C(CO)C(O)C2O)c([N+](=O)[O-])c(=O)[nH]1 (stereo not given) |  | > 100 µM | > 100 | > 100 | > 100 µM | > 100 | > 100 µM | > 100 µM | > 100 |  |  |  |  |  |  |  |  |  |  | 
20 | O=c1cc(-c2ccccc2)[nH]c2c(Cl)cccc12 | > 100 | 81 µM | > 100 | > 100 |  | > 100 | 67.1 µM | > 100 µM | > 100 |  |  |  |  |  |  |  |  |  |  | 
21 | CCOc1ccccc1N1C(=O)C(=O)C(c2nc3ccccc3o2)/C(=N\N)C1=O (stereo not given) | > 100 | > 100 µM | > 100 | > 100 | > 100 µM |  | > 100 µM | > 100 µM | > 100 |  |  |  |  |  |  |  |  |  |  | 
